± gives the standard deviation of the averaged measurements.
Tests used:
Conditions in all cases: 72 h
HepG2 [1] = experiment: relative viability EC50 (midpoint between 100% and the lowest measured viability); higher = less toxic
Calu-3 [2] = experiment: as above
U2OS [3] = experiment: as above
Vero E6 [4] = experiment: as above
Caco-2 [5] = experiment: as above
HepG2 [6] = experiment: drug sensitivity score (DSS) for viability; higher = more toxic; extreme values may be limits of the assay
Calu-3 [7] = experiment: as above
U2OS [8] = experiment: as above
Vero E6 [9] = experiment: as above
Caco-2 [10] = experiment: as above
HepG2 [11] = experiment: cell viability relative to DMSO; higher = less toxic
Calu-3 [12] = experiment: as above
U2OS [13] = experiment: as above
Vero E6 [14] = experiment: as above
Caco-2 [15] = experiment: as above

Structure (SMILES)	relative viability EC50 (HepG2 [1]) [µM]	relative viability EC50 (Calu-3 [2]) [µM]	relative viability EC50 (U2OS [3]) [µM]	relative viability EC50 (Vero E6 [4]) [µM]	relative viability EC50 (Caco-2 [5]) [µM]	drug sensitivity score (HepG2 [6])	drug sensitivity score (Calu-3 [7])	drug sensitivity score (U2OS [8])	drug sensitivity score (Vero E6 [9])	drug sensitivity score (Caco-2 [10])	cell viability (HepG2 [11]; 1 nM) [%]	cell viability (HepG2 [11]; 10 nM) [%]	cell viability (HepG2 [11]; 100 nM) [%]	cell viability (HepG2 [11]; 1000 nM) [%]	cell viability (HepG2 [11]; 10000 nM) [%]	cell viability (Calu-3 [12]; 1 nM) [%]	cell viability (Calu-3 [12]; 10 nM) [%]	cell viability (Calu-3 [12]; 100 nM) [%]	cell viability (Calu-3 [12]; 1000 nM) [%]	cell viability (Calu-3 [12]; 10000 nM) [%]	cell viability (U2OS [13]; 1 nM) [%]	cell viability (U2OS [13]; 10 nM) [%]	cell viability (U2OS [13]; 100 nM) [%]	cell viability (U2OS [13]; 1000 nM) [%]	cell viability (U2OS [13]; 10000 nM) [%]	cell viability (Vero E6 [14]; 1 nM) [%]	cell viability (Vero E6 [14]; 10 nM) [%]	cell viability (Vero E6 [14]; 100 nM) [%]	cell viability (Vero E6 [14]; 1000 nM) [%]	cell viability (Vero E6 [14]; 10000 nM) [%]	cell viability (Caco-2 [15]; 1 nM) [%]	cell viability (Caco-2 [15]; 10 nM) [%]	cell viability (Caco-2 [15]; 100 nM) [%]	cell viability (Caco-2 [15]; 1000 nM) [%]	cell viability (Caco-2 [15]; 10000 nM) [%]
CCN(c1ccccc1)c1cc(=NC)n(C)c(C)n1 [ZD-7288]	> 10	> 10	> 10	> 10	> 10	0	0	0	0	0	98.1	109	99.4	102	93.5	106	101	91.8	103	96.9	97.4	97.6	103	98.7	96	108	103	99.3	102	99	103	102	113	101	97.3
CC(=O)NCCCCCC(=O)O [acexamic-acid]	> 10	> 10	> 10	> 10	> 10	0	0	0	0	0	93	105	99.1	93.7	107	98.9	89.2	94.9	114	102	96.8	104	96.3	104	100	99.4	99.1	101	99.3	102	108	99.2	98.3	108	103
CC(C)(C)NCC(O)c1ccc(O)c(CO)c1 (stereo not given) [albuterol]	> 10	> 10	> 10	> 10	> 10	0.55 ± 0.78	0	0	0	0	108 ± 2.9	96.1 ± 2.7	98.5 ± 15	100 ± 14	91.6 ± 11	98.2 ± 3.3	97.2 ± 3.8	96.2 ± 6.6	103 ± 6	103 ± 9.1	101 ± 2.5	98.5 ± 4	97 ± 2.5	97.6 ± 3.7	96.2 ± 2.9	106 ± 2.5	94.8 ± 5.2	99.5 ± 3	97.8 ± 0.42	101 ± 3.8	101 ± 2	101 ± 14	90.9 ± 2.3	96.3 ± 1.5	102 ± 7.1
Nc1ccc(C(=O)O)c(O)c1 [aminosalicylate]	> 10	> 10	> 10	> 10	> 10	0	0	0	0	0	92.6	102	99.7	81.1	102	96.5	101	107	98.9	99.3	92.5	101	96.4	104	93.8	95.5	98.5	104	104	95.3	95.7	115	105	116	104
